# Values of other authors, collected in patent publication US20160367580A1, “IMPROVED EXTENDED-ACTION TILMICOSIN AND USE THEREOF IN TREATMENT OF BOVINE RESPIRATORY DISEASE COMPLEX (BRD) AND IN DRY COW PERIOD” (UNIVERSIDAD NACIONAL AUTONOMA DE MEXICO, priority 2014, published 2016).
# Key:
# [1] = tested on: Staphylococcus aureus; details: most of Staphylococcus aureus
# [2] = in vivo
structure (smiles),measurement,setting,value
CC[C@H]1OC(=O)C[C@@H](O)[C@H](C)[C@@H](O[C@@H]2O[C@H](C)[C@@H](O)[C@H](N(C)C)[C@H]2O)[C@@H](CCN2C[C@H](C)C[C@H](C)C2)C[C@@H](C)C(=O)/C=C/C(C)=C/[C@@H]1CO[C@@H]1O[C@H](C)[C@@H](O)[C@@H](OC)[C@H]1OC [tilmicosin],CMI value,[1],< 1.0 µg/mL
same,plasma concentration not to be exceeded (cardiotoxicity with tachycardia),[2],≤ 4000 ng/mL
